For this assay, the target named is T1, NaV1.7 (Rattus norvegicus, UniProt O08562).
T1 construct: gene Scn9a; rat cDNA NaV1.7 (GenBank No. U79568), transiently expressed in HEK-293 cells
Nature of the assay: whole-cell patch-clamp, INa block in transfected HEK-293 cells. The class given is cell-based. (In patch-clamp work, channel activity is measured electrically.)

Counter-ions that a name gives are not always drawn.

T1 sequence (O08562 whole entry): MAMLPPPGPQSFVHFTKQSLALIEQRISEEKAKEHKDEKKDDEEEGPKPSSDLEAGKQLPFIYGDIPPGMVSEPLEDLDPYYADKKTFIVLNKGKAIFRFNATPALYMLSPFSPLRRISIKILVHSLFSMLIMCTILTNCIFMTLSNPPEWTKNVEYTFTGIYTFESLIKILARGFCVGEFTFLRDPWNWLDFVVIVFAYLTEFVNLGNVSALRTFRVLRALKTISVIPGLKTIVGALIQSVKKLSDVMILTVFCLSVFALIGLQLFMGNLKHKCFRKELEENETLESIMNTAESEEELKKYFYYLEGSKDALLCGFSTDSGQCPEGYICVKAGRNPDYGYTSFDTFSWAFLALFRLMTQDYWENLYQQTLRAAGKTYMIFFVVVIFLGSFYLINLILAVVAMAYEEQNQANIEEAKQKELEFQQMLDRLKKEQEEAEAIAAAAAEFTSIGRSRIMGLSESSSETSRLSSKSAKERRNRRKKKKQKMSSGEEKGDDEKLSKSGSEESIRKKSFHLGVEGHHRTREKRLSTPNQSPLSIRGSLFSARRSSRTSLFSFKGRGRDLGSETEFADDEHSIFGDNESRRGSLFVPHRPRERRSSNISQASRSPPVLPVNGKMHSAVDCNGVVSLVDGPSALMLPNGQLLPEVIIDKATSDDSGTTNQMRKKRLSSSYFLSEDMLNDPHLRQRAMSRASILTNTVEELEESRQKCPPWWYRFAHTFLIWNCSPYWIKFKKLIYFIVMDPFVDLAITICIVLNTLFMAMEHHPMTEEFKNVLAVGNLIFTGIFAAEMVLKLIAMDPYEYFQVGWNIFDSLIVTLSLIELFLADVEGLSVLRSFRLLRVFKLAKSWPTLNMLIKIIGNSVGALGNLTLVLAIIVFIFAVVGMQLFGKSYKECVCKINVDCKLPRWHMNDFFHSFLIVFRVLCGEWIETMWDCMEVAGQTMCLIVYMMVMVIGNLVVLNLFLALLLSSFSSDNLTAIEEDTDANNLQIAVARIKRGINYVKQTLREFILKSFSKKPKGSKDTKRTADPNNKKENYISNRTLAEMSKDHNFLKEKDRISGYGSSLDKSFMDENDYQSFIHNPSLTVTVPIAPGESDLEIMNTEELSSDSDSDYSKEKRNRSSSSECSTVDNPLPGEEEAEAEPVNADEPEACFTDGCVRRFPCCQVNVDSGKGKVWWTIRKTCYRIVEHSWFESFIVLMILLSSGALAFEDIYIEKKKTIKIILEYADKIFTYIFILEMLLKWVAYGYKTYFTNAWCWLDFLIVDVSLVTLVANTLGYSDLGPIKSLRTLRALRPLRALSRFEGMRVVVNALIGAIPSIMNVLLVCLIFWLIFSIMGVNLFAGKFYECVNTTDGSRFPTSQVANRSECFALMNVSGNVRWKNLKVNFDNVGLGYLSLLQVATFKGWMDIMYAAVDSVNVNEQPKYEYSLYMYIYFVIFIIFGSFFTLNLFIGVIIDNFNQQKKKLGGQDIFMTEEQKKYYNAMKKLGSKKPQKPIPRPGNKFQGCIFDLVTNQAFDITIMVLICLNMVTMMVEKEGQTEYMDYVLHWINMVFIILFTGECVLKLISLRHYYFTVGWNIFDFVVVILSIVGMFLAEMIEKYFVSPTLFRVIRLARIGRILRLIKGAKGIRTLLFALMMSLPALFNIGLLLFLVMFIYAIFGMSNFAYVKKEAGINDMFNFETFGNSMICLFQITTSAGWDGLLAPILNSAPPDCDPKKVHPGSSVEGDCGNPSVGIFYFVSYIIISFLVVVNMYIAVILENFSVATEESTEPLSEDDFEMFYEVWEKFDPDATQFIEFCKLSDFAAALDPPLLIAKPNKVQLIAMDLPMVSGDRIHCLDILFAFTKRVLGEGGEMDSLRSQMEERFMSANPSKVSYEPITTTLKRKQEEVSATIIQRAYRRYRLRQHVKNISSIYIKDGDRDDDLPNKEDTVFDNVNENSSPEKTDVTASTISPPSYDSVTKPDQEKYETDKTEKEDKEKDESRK

Consider `c1ccc(C(CCCNCCCN2CCCCC2)c2ccccc2)cc1` [SV188, 4,4-Diphenylbutyl [3-(piperidin-1-yl)propyl]amine Hydrochloride], for which inhibition was half-maximal at 3.6 µM (IC50).

Source of the values: paper PMC10216335, “Voltage-Gated Sodium Channel NaV1.7 Inhibitors with Potent Anticancer Activities in Medullary Thyroid Cancer Cells” (Cancers, 2023).
